Data from PMC3115942 (PLoS ONE, 2011).
pIC50: −log10 of the molar value.

Key:
PANC-1 cells = assay: In vitro antiproliferative assay (MTS), PANC-1; type: cell-based, human; settings: 5 µM, 4 day
Procedure: (§1) Cells were plated at a density of 3000 (THLE-2 and PC-3) and 1000 (PANC-1, SUIT-2 and FEMX) cells per well (on the basis of their growth rate) in 200 µl of medium in a 96-well plate. Medium was changed daily, and after four days, the assay was read using a MTS kit (Promega) according to the instructions of the manufacturer. Graphs display average of percent growth with standard deviation (n = 8).

[1] = test system: Hh pathway in Shh-L2 cells; assay: Hh reporter assay in Shh-L2 cells; type: cell-based, mouse; settings: Mus musculus; pathway inhibition in Shh induced Shh-L2 cells, 48 hours treatment
Procedure: Shh-L2 cells were used as a Hh reporter cell line as described previously. Hh signaling was induced by Shh conditioned medium, 200 nM SAG (AH-Diagnostics) and ActOXS (a combination of 5 µM Hydroxycholesterol 20-alfa and 5 µM Hydroxycholesterol 22S (Sigma-Aldrich)). For Shh conditioned medium, Shh-PANC-1 cells were grown to confluence and switched to fresh medium. Shh conditioned medium was harvested after 48 hours, and was diluted to 50% in fresh DMEM before use. The clonal Shh-PANC-1 cell line was generated by stably transducing PANC-1 cells with virus containing medium from HEK293T cells that were transfected using a Virapower Lentiviral expression kit (Invitrogen). The vector was produced by removing GFP from a pLenti 6.2-vector, and inserting the mouse Shh cDNA sequence.
The calculations were performed with an online calculator using the formula: a exp (−bx) + c at the website; http://www.changbioscience.com/stat/ec50.html

[2] = test system: GLI1 mRNA in PANC-1 cells; assay: Real time PCR of GLI1 mRNA in PANC-1; type: cell-based, human; settings: 5 µM, 48 hrs
Procedure: (§2) Cells were lysed for RNA extraction after 48 or 72 hours of treatment. Total RNA from cultured cells or tumor tissue was isolated using the GeneElute miniprep kit (Sigma-Aldritch) following the manufacturer^'s instructions. cDNA was synthesized from the isolated mRNA using the Retroscript kit (Ambion), and real-time PCR was carried out using the SYBR Green PCR master mix (Stratagene) according to the manufacturer^'s instructions with an Mx3000P cycler (Stratagene). The relative concentrations of cDNA present in each sample were calculated by the MxPro software (Stratagene), normalized for GAPDH (mRNA from cells) or GUS (mRNA from tumors). For real time PCR primer sequences see Table 6. For the tumor tissue real time PCR, previously described human and mouse specific primers against GUSB, PTCH1 and GLI1were used.

[3] = test system: GLI1 mRNA in SUIT-2 cells; assay: Real time PCR of GLI1 mRNA in SUIT-2; type: cell-based, human; settings: 48 hrs
Procedure: as §2

[4] = test system: PANC-1, SUIT-2, PC-3 and FEMX cells; assay: In vitro antiproliferative assay (MTS), tumor cell lines; type: cell-based, human; settings: 10 µM, 4 day exposure; across PANC-1, SUIT-2, PC-3 and FEMX
Procedure: as §1

[5] = test system: Gli1 mRNA expression in Sufu−/− MEF; assay: Real time PCR of Gli1 mRNA in Sufu−/− MEF; type: cell-based, mouse; settings: 72 hours
Procedure: as §2

[6] = test system: Gli1 protein in Sufu−/− MEF; assay: Gli1 immunostaining of Sufu−/− MEF; type: cell-based, mouse; settings: 20 µM, 48 hours
GLI1 mRNA in PC-3 cells = assay: Real time PCR of GLI1 mRNA in PC-3; type: cell-based, human; settings: 48 hrs
Procedure: as §2

Compound	growth (MTS), PANC-1 (PANC-1 cells)	pIC50 [1]	GLI1 mRNA levels, PANC-1 [2]	GLI1 mRNA levels, SUIT-2 [3]	growth reduction (MTS) [4] [%]	inhibitory effect on Hh signaling downstream of Smo in Sufu−/− MEFs [5]	total level of Gli1 in the cells [6]	GLI1 mRNA levels, PC-3 (GLI1 mRNA in PC-3 cells)
CS(=O)(=O)c1ccc(C(=O)Nc2ccc(Cl)c(-c3ccccn3)c2)c(Cl)c1 [GDC-0449, reference compound]	reduced growth	7.52	without reducing GLI1 mRNA levels	reduced GLI1 mRNA levels	≤ 30	little inhibitory effect	reduced Gli1 levels in the cells, but to a lesser extent than MS-0022	reduced GLI1 mRNA levels
CC1=C2C[C@H]3[C@@H](CC=C4C[C@@H](O)CC[C@@]43C)[C@@H]2CC[C@]12O[C@@H]1C[C@H](C)CN[C@H]1[C@H]2C [cyclopamine, reference compound]	–	6.68	–	reduced GLI1 mRNA levels	–	little inhibitory effect	no significant effect	–
